Reference: ChEMBL document CHEMBL4011590, “Structure-activity relationship studies on 3,5-dinitrophenyl tetrazoles as antitubercular agents” (Eur J Med Chem, 2017)
Converted amounts (≈) assume the structure as drawn.

How the values were obtained:
Nakaseomyces glabratus [1] = assay: Antifungal activity against Candida glabrata 20/I after 24 hrs by broth microdilution method; format: functional
[2] = tested on: Trichophyton mentagrophytes; assay: Antifungal activity against Trichophyton mentagrophytes 445 after 120 hrs by broth microdilution method; format: functional; details: Trichophyton mentagrophytes, 445, 120 h
Pichia kudriavzevii [3] = assay: Antifungal activity against Candida krusei E28 after 24 hrs by broth microdilution method; format: functional; details: E28, 24 h
Aspergillus fumigatus [4] = assay: Antifungal activity against Aspergillus fumigatus 231 after 24 hrs by broth microdilution method; format: functional; details: Aspergillus fumigatus, 231, 24 h
Lichtheimia corymbifera [5] = assay: Antifungal activity against Absidia corymbifera 272 after 48 hrs by broth microdilution method; format: functional; details: Lichtheimia corymbifera, 272, 48 h
Klebsiella pneumoniae [6] = assay: Antibacterial activity against Klebsiella pneumoniae HK11750/08 after 48 hrs by broth microdilution method; format: functional; details: HK11750/08, 48 h
Nakaseomyces glabratus [7] = assay: Antifungal activity against Candida glabrata 20/I after 48 hrs by broth microdilution method; format: functional
Mycobacterium kansasii [8] = assay: Antimycobacterial activity against Mycobacterium kansasii isolate 6509/96 after 21 days by micromethod; format: functional; details: isolate 6509/96, 504 h
Escherichia coli [9] = assay: Antibacterial activity against Escherichia coli ATCC 8739 after 48 hrs by broth microdilution method; format: functional; details: ATCC 8739, 48 h
Klebsiella pneumoniae [10] = assay: Antibacterial activity against Klebsiella pneumoniae HK11750/08 after 24 hrs by broth microdilution method; format: functional; details: HK11750/08, 24 h
Mycobacterium kansasii [11] = assay: Antimycobacterial activity against Mycobacterium kansasii isolate 6509/96 after 14 days by micromethod; format: functional; details: isolate 6509/96, 336 h
Trichosporon asahii [12] = assay: Antifungal activity against Trichosporon asahii 1188 after 48 hrs by broth microdilution method; format: functional; details: Trichosporon asahii, 1188, 48 h
Staphylococcus aureus [13] = assay: Antibacterial activity against methicillin-resistant Staphylococcus aureus HK5996/08 after 48 hrs by broth microdilution method; format: functional; details: HK5996/08, 48 h
Candida tropicalis [14] = assay: Antifungal activity against Candida tropicalis 156 after 24 hrs by broth microdilution method; format: functional; details: Candida tropicalis, 156, 24 h
Trichosporon asahii [15] = assay: Antifungal activity against Trichosporon asahii 1188 after 24 hrs by broth microdilution method; format: functional; details: Trichosporon asahii, 1188, 24 h
[16] = tested on: Mycobacterium tuberculosis; assay: Antimycobacterial activity against Mycobacterium tuberculosis H37Rv CNCTC My 331/88 after 21 days by micromethod; format: functional; details: H37Rv CNCTC My 331/88, 504 h
Enterococcus sp. [17] = assay: Antibacterial activity against Enterococcus sp. HK14365/08 after 48 hrs by broth microdilution method; format: functional; details: HK14365/08, 48 h
[18] = tested on: Mycobacterium tuberculosis; assay: Antimycobacterial activity against Mycobacterium tuberculosis H37Rv CNCTC My 331/88 after 14 days by micromethod; format: functional; details: H37Rv CNCTC My 331/88, 336 h
Aspergillus fumigatus [19] = assay: Antifungal activity against Aspergillus fumigatus 231 after 48 hrs by broth microdilution method; format: functional; details: Aspergillus fumigatus, 231, 48 h
Pseudomonas aeruginosa [20] = assay: Antibacterial activity against Pseudomonas aeruginosa ATCC 9027 after 48 hrs by broth microdilution method; format: functional; details: ATCC 9027, 48 h
CHO-K1 = assay: Cytotoxicity against CHOK1 cells after 24 hrs by MTT assay; format: cell-based; details: Cricetulus griseus, CHO-K1, 24 h
Staphylococcus aureus [21] = assay: Antibacterial activity against Staphylococcus aureus ATCC 6538 after 48 hrs by broth microdilution method; format: functional; details: ATCC 6538, 48 h
Mycobacterium avium [22] = assay: Antimycobacterial activity against Mycobacterium avium CNCTC My 330/80 after 14 days by micromethod; format: functional; details: CNCTC My 330/80, 336 h
Candida tropicalis [23] = assay: Antifungal activity against Candida tropicalis 156 after 48 hrs by broth microdilution method; format: functional; details: Candida tropicalis, 156, 48 h
Enterococcus sp. [24] = assay: Antibacterial activity against Enterococcus sp. HK14365/08 after 24 hrs by broth microdilution method; format: functional; details: HK14365/08, 24 h
Pichia kudriavzevii [25] = assay: Antifungal activity against Candida krusei E28 after 48 hrs by broth microdilution method; format: functional; details: E28, 48 h
Staphylococcus aureus [26] = assay: Antibacterial activity against methicillin-resistant Staphylococcus aureus HK5996/08 after 24 hrs by broth microdilution method; format: functional; details: HK5996/08, 24 h
[27] = tested on: Staphylococcus epidermidis; assay: Antibacterial activity against Staphylococcus epidermidis HK6966/08 after 48 hrs by broth microdilution method; format: functional; details: HK6966/08, 48 h
Mycobacterium kansasii [28] = assay: Antimycobacterial activity against Mycobacterium kansasii CNCTC My 235/80 after 7 days by micromethod; format: functional; details: CNCTC My 235/80, 168 h
Candida albicans [29] = assay: Antifungal activity against Candida albicans ATCC 44859 after 48 hrs by broth microdilution method; format: functional; details: ATCC 44859, 48 h
Candida albicans [30] = assay: Antifungal activity against Candida albicans ATCC 44859 after 24 hrs by broth microdilution method; format: functional; details: ATCC 44859, 24 h
Mycobacterium kansasii [31] = assay: Antimycobacterial activity against Mycobacterium kansasii CNCTC My 235/80 after 21 days by micromethod; format: functional; details: CNCTC My 235/80, 504 h
[32] = tested on: Trichophyton mentagrophytes; assay: Antifungal activity against Trichophyton mentagrophytes 445 after 72 hrs by broth microdilution method; format: functional; details: Trichophyton mentagrophytes, 445, 72 h
Mycobacterium kansasii [33] = assay: Antimycobacterial activity against Mycobacterium kansasii CNCTC My 235/80 after 14 days by micromethod; format: functional; details: CNCTC My 235/80, 336 h
Staphylococcus aureus [34] = assay: Antibacterial activity against Staphylococcus aureus ATCC 6538 after 24 hrs by broth microdilution method; format: functional; details: ATCC 6538, 24 h
Pseudomonas aeruginosa [35] = assay: Antibacterial activity against Pseudomonas aeruginosa ATCC 9027 after 24 hrs by broth microdilution method; format: functional; details: ATCC 9027, 24 h
Mycobacterium kansasii [36] = assay: Antimycobacterial activity against Mycobacterium kansasii isolate 6509/96 after 7 days by micromethod; format: functional; details: isolate 6509/96, 168 h
Mycobacterium avium [37] = assay: Antimycobacterial activity against Mycobacterium avium CNCTC My 330/80 after 21 days by micromethod; format: functional; details: CNCTC My 330/80, 504 h
Klebsiella pneumoniae [38] = assay: Antibacterial activity against extended spectrum beta-lactamase producing Klebsiella pneumoniae HK14368/08 after 48 hrs by broth microdilution method; format: functional; details: HK14368/08, 48 h
Klebsiella pneumoniae [39] = assay: Antibacterial activity against extended spectrum beta-lactamase producing Klebsiella pneumoniae HK14368/08 after 24 hrs by broth microdilution method; format: functional; details: HK14368/08, 24 h
[40] = tested on: Staphylococcus epidermidis; assay: Antibacterial activity against Staphylococcus epidermidis HK6966/08 after 24 hrs by broth microdilution method; format: functional; details: HK6966/08, 24 h
Lichtheimia corymbifera [41] = assay: Antifungal activity against Absidia corymbifera 272 after 24 hrs by broth microdilution method; format: functional; details: Lichtheimia corymbifera, 272, 24 h
Escherichia coli [42] = assay: Antibacterial activity against Escherichia coli ATCC 8739 after 24 hrs by broth microdilution method; format: functional; details: ATCC 8739, 24 h

In the case of CCCCCCCCCCCCn1nnc(-c2cc([N+](=O)[O-])cc([N+](=O)[O-])c2)n1, the MIC (Nakaseomyces glabratus [1]) is reported as over 250 µM, the MIC [2] is reported as over 250 µM and the MIC (Pichia kudriavzevii [3]) is reported as over 250 µM. The MIC (Aspergillus fumigatus [4]) was over 250 µM, the MIC (Lichtheimia corymbifera [5]) was over 250 µM and the MIC (Klebsiella pneumoniae [6]) was over 250 µM. It also gave an MIC (Nakaseomyces glabratus [7]) of over 250 µM, an MIC99 (Mycobacterium kansasii [8]) of 4 µM (≈ 1.62 µg/mL) and an MIC (Escherichia coli [9]) of over 250 µM. For the same compound, the MIC (Klebsiella pneumoniae [10]) was over 250 µM, the MIC99 (Mycobacterium kansasii [11]) was 4 µM (≈ 1.62 µg/mL) and the MIC (Trichosporon asahii [12]) was over 250 µM. For the same compound, the MIC (Staphylococcus aureus [13]) was over 250 µM, the MIC (Candida tropicalis [14]) was over 250 µM and the MIC (Trichosporon asahii [15]) was over 250 µM. The MIC99 [16] was 2 µM (≈ 0.809 µg/mL), the MIC (Enterococcus sp. [17]) was over 250 µM and the MIC99 [18] was 1 µM (≈ 0.404 µg/mL). The MIC (Aspergillus fumigatus [19]) was over 250 µM, the MIC (Pseudomonas aeruginosa [20]) was over 250 µM and the IC50 (CHO-K1) was over 200 µM. It also gave an MIC (Staphylococcus aureus [21]) of over 250 µM, an MIC99 (Mycobacterium avium [22]) of 8 µM (≈ 3.24 µg/mL) and an MIC (Candida tropicalis [23]) of over 250 µM. It also gave an MIC (Enterococcus sp. [24]) of over 250 µM, an MIC (Pichia kudriavzevii [25]) of over 250 µM and an MIC (Staphylococcus aureus [26]) of over 250 µM. It also gave an MIC [27] of over 250 µM, an MIC99 (Mycobacterium kansasii [28]) of 4 µM (≈ 1.62 µg/mL) and an MIC (Candida albicans [29]) of over 250 µM. The MIC (Candida albicans [30]) was over 250 µM, the MIC99 (Mycobacterium kansasii [31]) was 8 µM (≈ 3.24 µg/mL) and the MIC [32] was over 250 µM. For the same compound, the MIC99 (Mycobacterium kansasii [33]) was 8 µM (≈ 3.24 µg/mL), the MIC (Staphylococcus aureus [34]) was over 250 µM and the MIC (Pseudomonas aeruginosa [35]) was over 250 µM. For the same compound, the MIC99 (Mycobacterium kansasii [36]) was 2 µM (≈ 0.809 µg/mL), the MIC99 (Mycobacterium avium [37]) was 16 µM (≈ 6.47 µg/mL) and the MIC (Klebsiella pneumoniae [38]) was over 250 µM. It also gave an MIC (Klebsiella pneumoniae [39]) of over 250 µM, an MIC [40] of over 250 µM and an MIC (Lichtheimia corymbifera [41]) of over 250 µM. For the same compound, the MIC (Escherichia coli [42]) was over 250 µM.

Cc1ccc(Cn2nnc(-c3cc([N+](=O)[O-])cc([N+](=O)[O-])c3)n2)cc1 was tested, and the MIC (Nakaseomyces glabratus [1]) was over 500 µM, the MIC [2] was over 500 µM and the MIC (Pichia kudriavzevii [3]) was over 500 µM. For the same compound, the MIC (Aspergillus fumigatus [4]) was over 500 µM, the MIC (Lichtheimia corymbifera [5]) was over 500 µM and the MIC (Klebsiella pneumoniae [6]) was over 500 µM. It also gave an MIC (Nakaseomyces glabratus [7]) of over 500 µM, an MIC99 (Mycobacterium kansasii [8]) of 0.5 µM (≈ 0.17 µg/mL) and an MIC (Escherichia coli [9]) of over 500 µM. For the same compound, the MIC (Klebsiella pneumoniae [10]) was over 500 µM, the MIC99 (Mycobacterium kansasii [11]) was 0.5 µM (≈ 0.17 µg/mL) and the MIC (Trichosporon asahii [12]) was over 500 µM. It also gave an MIC (Staphylococcus aureus [13]) of over 500 µM, an MIC (Candida tropicalis [14]) of over 500 µM and an MIC (Trichosporon asahii [15]) of over 500 µM. The MIC99 [16] was 0.125 µM (≈ 0.0425 µg/mL), the MIC (Enterococcus sp. [17]) was over 500 µM and the MIC99 [18] was 0.125 µM (≈ 0.0425 µg/mL). For the same compound, the MIC (Aspergillus fumigatus [19]) was over 500 µM, the MIC (Pseudomonas aeruginosa [20]) was over 500 µM and the IC50 (CHO-K1) was 200 µM. The MIC (Staphylococcus aureus [21]) was 31.2 µM (≈ 10.6 µg/mL), the MIC99 (Mycobacterium avium [22]) was 8 µM (≈ 2.72 µg/mL) and the MIC (Candida tropicalis [23]) was over 500 µM. For the same compound, the MIC (Enterococcus sp. [24]) was over 500 µM, the MIC (Pichia kudriavzevii [25]) was over 500 µM and the MIC (Staphylococcus aureus [26]) was over 500 µM. The MIC [27] was 62.5 µM (≈ 21.3 µg/mL), the MIC99 (Mycobacterium kansasii [28]) was 0.5 µM (≈ 0.17 µg/mL) and the MIC (Candida albicans [29]) was over 500 µM. The MIC (Candida albicans [30]) was over 500 µM, the MIC99 (Mycobacterium kansasii [31]) was 1 µM (≈ 0.34 µg/mL) and the MIC [32] was over 500 µM. For the same compound, the MIC99 (Mycobacterium kansasii [33]) was 1 µM (≈ 0.34 µg/mL), the MIC (Staphylococcus aureus [34]) was 31.2 µM (≈ 10.6 µg/mL) and the MIC (Pseudomonas aeruginosa [35]) was over 500 µM. It also gave an MIC99 (Mycobacterium kansasii [36]) of 0.25 µM (≈ 0.0851 µg/mL), an MIC99 (Mycobacterium avium [37]) of 16 µM (≈ 5.44 µg/mL) and an MIC (Klebsiella pneumoniae [38]) of over 500 µM. For the same compound, the MIC (Klebsiella pneumoniae [39]) was over 500 µM, the MIC [40] was 62.5 µM (≈ 21.3 µg/mL) and the MIC (Lichtheimia corymbifera [41]) was over 500 µM. For the same compound, the MIC (Escherichia coli [42]) was over 500 µM.
